Laboratory results: the PolyMetriX glass transition set

Compound	glass transition temperature [°C]
*Oc1ccccc1C(=O)OC(=O)c1ccccc1OC(=O)CCCCCCCC(*)=O (repeat unit)	25.00
*O[Si](C)(C)O[Si](C)(C)O[Si](*)(c1c(F)c(F)c(F)c(F)c1F)c1c(F)c(F)c(F)c(F)c1F (repeat unit)	-42.00
*CCN(*)C(=O)CCCCCC (repeat unit)	10.00
*CCOCCOCCOCCOC(=O)c1ccc(-c2ccc(C(=O)O*)cc2)cc1 (repeat unit)	4.00
*CC(*)(C)C(=O)OCCCCCCOc1ccc(/C=N/c2ccc(C#N)cc2)cc1 (repeat unit)	35.00
*c1ccc(OCCOCCOc2cccc(N3C(=O)c4ccc(Oc5ccc6c(c5)C(=O)N(*)C6=O)cc4C3=O)c2)cc1 (repeat unit)	146.50
*O[Si](C)(C)C#Cc1ccc(C#C[Si](*)(C)C)cc1 (repeat unit)	126.00
*CCc1ccc(*)c(Cl)c1 (repeat unit)	75.00
*CCCCCCCCCCCCOc1ccc(/C=N/N=C/c2ccc(O*)cc2O)c(O)c1 (repeat unit)	89.00
*CC(O)COc1c(C)cc(C(C)(C)c2cc(C)c(O*)c(C)c2)cc1C (repeat unit)	130.00
*c1ccc2c(c1)Sc1cc(-c3sc4cc(*)sc4c3CCCCC)ccc1N2CCCCCC (repeat unit)	126.00
*/C(C#N)=C/c1cc(OCCCCCCCCCCCCCCCC)c(/C=C(\C#N)c2cc(OCCCCCCCCCCCCCCCC)c(*)cc2OC)cc1OC (repeat unit)	190.00
*c1ccc(Oc2ccccc2Oc2ccc(N3C(=O)c4ccc(-c5ccc6c(c5)C(=O)N(*)C6=O)cc4C3=O)cc2)cc1 (repeat unit)	241.00
*CCCCCCCCCCOc1ccc(/C=C/c2ccc(OCCCCCCCCCCOP(=O)(O*)OCCCCCCCCCCOc3ccc(/N=N/c4ccc([N+](=O)[O-])cc4)cc3)cc2)cc1 (repeat unit)	50.00
*CCCCCCCOc1ccc(CCc2ccc(O*)cc2C)cc1 (repeat unit)	6.50
*CCCC(*)(C)C(=O)O (repeat unit)	132.00

Compound	glass transition temperature [°C]
*CCCCCCCCc1nc2cc(-c3ccc4[nH]c(*)nc4c3)ccc2[nH]1 (repeat unit)	234.00
*Nc1ccc(C(c2ccc(NC(=O)c3cc(C(*)=O)cc(C(C)(C)C)c3)cc2)(P2(=O)Oc3ccccc3-c3ccccc32)P2(=O)Oc3ccccc3-c3ccccc32)cc1 (repeat unit)	235.00
*CC(*)c1cc(Cl)ccc1Cl (repeat unit)	108.00
*C(*)C(=O)OC(C)C (repeat unit)	70.00
*Oc1ccc(NC(=O)c2cc(NC(=O)c3ccc(OC(C)=O)cc3)cc(C(=O)Nc3ccc(Oc4ccc(C(C)(C)c5ccc(*)cc5)cc4)cc3)c2)cc1 (repeat unit)	243.00
*CCCCCCCCN1C(=O)c2ccc(C(=O)c3ccc4c(c3)C(=O)N(*)C4=O)cc2C1=O (repeat unit)	113.00
*CC(*)c1ccc(O)c(OC)c1 (repeat unit)	142.00
*CC(*)C(=O)NC(C)(C)CS(=O)(=O)O (repeat unit)	85.00
*OC1CCC(OC(=O)C(*)=O)CC1 (repeat unit)	139.60
*C(=O)Oc1ccc(C(=O)Oc2cccc(OC(=O)c3ccc(OC(=O)c4ccc(*)nc4)cc3)c2)cc1 (repeat unit)	110.00
*CC(*)OC(=O)C(C)(C)CCC (repeat unit)	10.00
*Oc1ccc(NC(=O)c2ccc(Oc3ccc(C(C)(C)c4ccc(C(C)(C)c5ccc(Oc6ccc(C(=O)Nc7ccc(Oc8ccc(C(C)(C)c9ccc(*)cc9)cc8)cc7)cc6)cc5)cc4)cc3)cc2)cc1 (repeat unit)	163.00
*CC(*)OC(=O)c1cccc(Cl)c1 (repeat unit)	61.8
*/C=C/c1ccc2c(c1)Sc1cc(*)ccc1N2c1ccc(OCCCCCCCCCCCC)cc1 (repeat unit)	129.00
*CCN(*)C(=O)CCC(=O)OC (repeat unit)	31.00
*CC1CC2CC1C1CCC(CN3C(=O)c4ccc(Oc5ccc6c(c5)C(=O)N(*)C6=O)cc4C3=O)C21 (repeat unit)	201.00

The next lines start with the values.

glass transition temperature [°C]	Compound
123.00	*CCN(CCOC(=O)Nc1cccc(NC(=O)O*)c1C)c1ccc(/C=C/c2ccc([N+](=O)[O-])cc2)cc1 (repeat unit)
151.00	*Oc1ccc(C2(c3ccc(OC(=O)CCCCCCCCC(*)=O)cc3)c3ccccc3-c3ccccc32)cc1 (repeat unit)
79.00	*Oc1ccc(C2(c3ccc(OC(*)=S)cc3)CCCC2)cc1 (repeat unit)
207.00	*Oc1ccc(C2(c3ccc(OC(=O)c4cccc(C(*)=O)c4)c(C)c3)CCC3CCCCC3C2)cc1C (repeat unit)
124.00	*CC(*)c1ccccc1C(=O)Oc1ccccc1 (repeat unit)
130.00	*CCCC(C)CN1C(=O)c2ccc(C(=O)Oc3ccc4cc(OC(=O)c5ccc6c(c5)C(=O)N(*)C6=O)ccc4c3)cc2C1=O (repeat unit)
132.00	*CC(*)c1ccc(COc2ccc(-c3ccc(C#N)cc3)cc2)cc1 (repeat unit)
350.00	*c1ccc(C(c2ccccc2)(c2ccc(-c3nc4ccc(-c5ccc6nc(*)oc6c5)cc4o3)cc2)C(F)(F)F)cc1 (repeat unit)
223.00	*Oc1ccc(S(=O)(=O)c2ccc(Oc3ccc(C(c4ccc(*)cc4)c4ccccc4C(=O)O)cc3)cc2)cc1 (repeat unit)
190.00	*CCCCCCNC(=O)c1ccc(C2(C)CC(C)(C)c3ccc(C(=O)N*)cc32)cc1 (repeat unit)
-74.50	*CCOCCOC(=O)CCCCCCCCC(=O)O* (repeat unit)
200.00	*Oc1ccc(Oc2ccc(NC(=O)c3ccc(Oc4ccc(Oc5ccc(C(=O)Nc6ccc(*)cc6)cc5)cc4C)cc3)cc2)cc1 (repeat unit)
277.00	*c1ccc(Oc2ccc(S(=O)(=O)c3ccc(Oc4ccc(-c5nc(-c6ccccc6)[nH]c5*)cc4)cc3)cc2)cc1 (repeat unit)
53.80	*c1nnc(-c2cc(CCCCCCCCCC)c(-c3sc(-c4nnc(-c5cc(OCCCCCCCC)c(*)cc5OCCCCCCCC)o4)cc3CCCCCCCCCC)s2)o1 (repeat unit)
273.00	*Oc1ccc(NC(=O)c2cc(NC(=O)c3ccc(OC(C)=O)cc3)cc(C(=O)Nc3ccc(*)cc3)c2)cc1 (repeat unit)
45.00	*CCCCCCCCOC(=O)c1ccc(C(=O)O*)cc1 (repeat unit)
155.00	*Oc1ccc(/N=C(\c2ccccc2)c2ccc(Oc3ccc(C(C)(C)c4ccc(Oc5ccc(/C(=N/c6ccc(*)cc6)c6ccccc6)cc5)cc4)cc3)cc2)cc1 (repeat unit)
-69.00	*CCCCCCOC(=O)CCCCC(=O)O* (repeat unit)
226.00	*c1ccc(Oc2ccc(-c3ccc(Oc4ccc(N5C(=O)c6ccc(Oc7ccc(C8(c9ccc(Oc%10ccc%11c(c%10)C(=O)N(*)C%11=O)cc9)CCC(c9ccccc9)CC8)cc7)cc6C5=O)cc4)cc3C)c(C)c2)cc1 (repeat unit)

glass transition temperature [°C]	Compound
213.00	*Oc1ccc(C(=O)Nc2cc(C(c3ccc(C)c(NC(=O)c4ccc(OC(=O)c5ccc(C(*)=O)cc5)cc4)c3)(C(F)(F)F)C(F)(F)F)ccc2C)cc1 (repeat unit)
181.00	*Oc1ccc(C2(c3ccc(OC(=O)CCCC(*)=O)cc3)c3cc(N(C)C)ccc3-c3ccc([N+](=O)[O-])cc32)cc1 (repeat unit)
83.00	*CC(O)COc1ccc(C(C)(C)c2ccc(OCC(O)COc3cccc(O*)c3)cc2)cc1 (repeat unit)
253.00	*c1ccc(C(=O)c2ccc(Oc3ccc(-c4nn(*)c(=O)c5ccccc45)c(F)c3)cc2)cc1 (repeat unit)
72.00	*CCCC1(C)CCN(C(=O)CC(C)C(=O)N2CCC(*)(C)CC2)CC1 (repeat unit)
13.00	*CCCCCCOC(=O)c1ccc(C(=O)O*)cc1 (repeat unit)
30.00	*OC1CCC(OC(=O)OCCCCOC(*)=O)CC1 (repeat unit)
88.00	*CCCOC(=O)c1ccc2cc(C(=O)O*)ccc2c1 (repeat unit)
8.00	*O[Si](*)(C)CCCCCCOc1ccc(C(=O)Oc2ccc(C#N)cc2)cc1 (repeat unit)
105.00	*CC(O)COc1ccc(C(C)(C)c2ccc(OCC(O)COc3ccc(NC(=O)CCCC(=O)Nc4ccc(O*)cc4)cc3)cc2)cc1 (repeat unit)
283.50	*c1ccc(Oc2ccc(N3C(=O)c4ccc(S(=O)(=O)c5ccc6c(c5)C(=O)N(*)C6=O)cc4C3=O)cc2)cc1 (repeat unit)
125.00	*CCCCNC(=O)c1ccc(C(=O)N*)c(Oc2ccccc2)c1 (repeat unit)
277.00	*Nc1ccc(C2(c3ccc(NC(=O)c4cccc(C(*)=O)c4)cc3)c3ccccc3-c3ccccc32)cc1 (repeat unit)
221.00	*CCC(=O)Nc1ccc(Cc2ccc(NC(=O)CCN3C(=O)c4ccc(C(=O)c5ccc6c(c5)C(=O)N(*)C6=O)cc4C3=O)cc2)cc1 (repeat unit)
231.00	*c1cccc(N2C(=O)c3cccc(Oc4ccc(Sc5ccc(Oc6cccc7c6C(=O)N(*)C7=O)cc5)cc4)c3C2=O)c1 (repeat unit)
95.00	*CCCOc1ccc(C(=O)OC(=O)c2ccc(O*)cc2)cc1 (repeat unit)
230.00	*c1ccc(N(c2ccc(C#N)cc2)c2ccc(N3C(=O)c4ccc(Oc5ccc(C(C)(C)c6ccc(Oc7ccc8c(c7)C(=O)N(*)C8=O)cc6)cc5)cc4C3=O)cc2)cc1 (repeat unit)
121.00	*/C=C/c1cc(OCCc2ccccc2)c(*)cc1OC (repeat unit)
